# Results taken from PMC10826971, “Evaluating protein cross-linking as a therapeutic strategy to stabilize SOD1 variants in a mouse model of familial ALS” (PLOS Biology, 2024).
# “And” between values parts separate entries of the source, which are not always exact repeats. Identical values can stand only once. “Also recorded” adds a separate entry of the source.
# Experiments:
# [1] = system: NSC-34 cells expressing EGFP-WT-SOD1; assay: Determination of cells containing inclusions; assay type: cell-based, mouse; set-up: Inclusion Formation: unit not given here; settings: for Inclusion Formation: WT, 48 h, replicates
# Experimental: (§1) Transfected NSC-34 cells were plated out into 96-well plates and left overnight. […] Cells were then fixed using 4% (w/v) paraformaldehyde in 1×PBS for 20 min. Plates for imaging were then processed as previously described with some changes. Cells were imaged using a DMi8 epifluorescent microscope (Leica, Germany) fitted with a Mercury Arc Lamp, a 10× 0.25NA (CAT NO) air objective and an automated stage. A software-based autofocus strategy was utilized to focus on the GFP signal within cells, with a subsequent image being taken in the DAPI channel to view Hoescht-stained nuclei. Relative focus correction was applied between channels to offset emission wavelength effects to the focal plane. Following image acquisition, images were corrected for illumination variation via a background method and processed using a combination of FIJI [66], StarDist, CellProfiler, and CellProfiler Analyst as previously described.
# [2] = system: NSC-34 cells expressing EGFP-G93A; assay: Determination of cells containing inclusions; assay type: cell-based, mouse; set-up: Inclusion Formation: unit not given here; settings: for Inclusion Formation: G93A, 48 h, replicates
# Experimental: as §1
# SOD1 = biological target: T1, SOD1 (Homo sapiens, UniProt P00441, G94A); assay: Target engagement in blood during the survival studies; assay type: in vivo, mouse
# T1 construct: Extraction of SOD1^G93A from red blood cell (RBC) protein was performed as previously described; tissue Jackson Laboratory 002726; host or cells: red blood cells of transgenic B6SJL-Tg(SOD1*G93A)1Gur/J mice
# T1 sequence (P00441 2-154 G94A limits assumed): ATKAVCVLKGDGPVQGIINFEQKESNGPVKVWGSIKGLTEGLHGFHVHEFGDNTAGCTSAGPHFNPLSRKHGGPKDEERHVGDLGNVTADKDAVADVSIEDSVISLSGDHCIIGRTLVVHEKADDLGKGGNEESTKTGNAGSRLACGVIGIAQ
# Excerpt: Two fALS lines were used to assess survival in genetic backgrounds with different disease severity. […] Dose and dose regimen were estimated from the blood PK/PD profile and BBB penetration described above. A subcutaneous (SC) route of administration was chosen because in our hands it results in more precise delivery. […] In both studies, mice were gender and littermate matched and non ALS-related deaths were excluded. We are currently developing the methods necessary for quantifying copy number and cannot rule out reduced SOD1 expression as having contributed to the survival benefit in treated B6 G93A mice.
# The data underlying this figure can be found in S1 Data. fALS, familial amyotrophic lateral sclerosis.
smiles,measurement,setting,value
"[O-][S+]1CCCCS1 (stereo not shown) [S-XL6, 1,2-dithiane-1-oxide]",aggregation of EGFP-labeled wild-type SOD1,[1],increased cellular aggregation; also recorded: accelerate the aggregation
same,Inclusion Formation,[1]; 5 uM,0.4215 and 0.8811 and 2.367 and 0.4188 and 0.4044
same,Inclusion Formation,[1]; 10 uM,0.8155 and 1.677 and 1.595 and 4.094 and 2.381
same,Inclusion Formation,[1]; 20 uM,9.589 and 4.535 and 7.818 and 6.78 and 6.154
same,aggregation of EGFP-labeled G93A,[2],did not affect
same,Inclusion Formation,[2]; 5 uM,5.34 and 6.771 and 14.6572 and 11.1111 and 8.602
same,Inclusion Formation,[2]; 10 uM,6.731 and 9.113 and 13.3487 and 16.0367 and 12.7358
same,Inclusion Formation,[2]; 20 uM,8.219 and 11.7978 and 11.4911 and 10.411 and 12.1547
same,target engagement after initial dose,"SOD1; B6SJL G93A mice, initial SC dose of 20 mg/kg",lower target engagement than expected
same,SOD1 engaged (on average) over time,"SOD1; survival studies, 50 mg/kg SC",approximately 40%
